In patent US10349662B2, “Insecticidal compositions and methods of using the same” (priority 2011, dated 2019):
In brackets after ≈: the same amount, converted by molar mass. Several values for one entry are separate records, joined by “and”; a condition that tells them apart may be missing. Identical values can stand only once. Like-named read-outs stand apart in the source and are kept apart here.

Legend:
Cytochrome P450 enzyme = assay: P450 activity assay (7-ethoxycoumarin, fluorescence); format: biochemical, A. aegypti; conditions: FIG. 2; for inhibition of P450 activity: added to the assay
Method: Cytochrome P450 enzyme solution was prepared by homogenizing 15, 3 to 5 day old, A. aegypti females and centrifuging the mixture at 10,000 g for 1 minute. The pellet was discarded, and the supernatant was used as the P450 enzyme stock solution. 10 μL of this P450 enzyme stock and 90 μL of 7-ethoxycoumarin solution (0.526 mM of 7-ethoxycoumarin, 1.11 mM NADPH, 0.05 mM phosphate buffer) was added to each well of the micropipette plate to begin the reaction. During the reaction, the micropipette plate was covered with aluminum foil to prevent photo-bleaching. The reaction was incubated at 30° C. for 4 hours. The reaction was stopped by adding 30 μL of stop solution (0.1 mM glycine, pH 10.4, 50% ethanol). The micropipette plate was then analyzed by measuring the fluorescence (Emission=460 nm, Excitation=360 nm) of each well. High fluorescence was directly related to product, and thus indicated a high level of P450 activity.

[1] = cited from earlier work
Aedes aegypti mosquitoes = assay: Topical bioassay on adult female Aedes aegypti mosquitoes (knockdown 1 h, mortality 24 h; Colby calculation for combinations); format: in vivo
From the text: Components of a composition can have a synergistic or additive effect on insecticidal activity. Components have an additive effect when the effect of the combination is equal to the sum of the effects of each individual component. In contrast, components have a synergistic effect when the effect of the combination exceeds the sum of the effects of the components when applied individually. The effect (E) of a combination of two compounds may be calculated using the Colby formula (1) (S. R. Colby, “Calculating Synergistic and Antagonistic Responses of Herbicide Combinations”, Weeds 1967, 15, 20-22):
If the actual insecticidal kill rate is the calculated value (E), then the action of the combination is additive. If the actual insecticidal kill rate exceeds the calculated value (E), then the action of the combination is super-additive, that is, a synergistic effect is present. If the insecticidal kill rate is lower than the calculated value (E), then the action of the combination is considered antagonistic.
Adult female Aedes aegypti mosquitoes were segregated in 18″×18″ screen cages based on date of eclosion, therefore the exact age of the mosquitoes were known for bioassays.
Ten female mosquitoes, aged four to six days after eclosion, were aspirated out of their respective cage and into a small glass jar. The mosquitoes were then anesthetized with CO2 gas for 30 seconds. After the adults were anesthetized, they were quickly placed on a plastic platform for treatment application. Treatments were serially diluted (using a BrandTech Scientific Transferpette S pipette (100-1000 μL), labeled centrifuge tubes, and a vortex mixer) from stocks of insecticides using reagent grade acetone as the diluent to concentrations as indicated for each treatment solution. A treatment solution may contain additional ingredients as indicated for each study.
Using a Hamilton PB00-1 Repeating Dispenser with a Hamilton 25 Microliter Syringe, 0.5 μL of each treatment solution was applied to the thorax of each mosquito. Immediately following the application of the treatment, the mosquitoes were gently transferred into a clean paper cup and covered with screen. The mesh screen prevented the mosquitoes from escaping and allowed the specimens to be viewed for ratings. A cotton ball soaked with 10% sucrose solution was inserted into a side hole of each cup for hydration and nourishment. Each treatment variable in the study was replicated three times using separate cups for each replication.
The untreated controls treatments were anesthetized for 30 seconds and gently transferred to the paper cups. The acetone treated control was treated exactly as described above except that the solution applied to each mosquito was undiluted acetone.
The condition of the mosquitoes in each cup was recorded at one hour and 24 hours after initial treatment. The condition classifications used were (1) alive and flying, (2) alive and unable to fly, or (3) dead. The percent mortality for each treatment was calculated by summing the mortalities of each replicate then calculating the percent dead from the total number of mosquitoes.
Where indicated, the mortality data were subjected to probit analysis using the Statistical Analysis System Version 9.1 program PROC PROBIT (SAS Institute (2003) PROC user's manual, version 9.1. SAS Institute, Cary, N.C.).

[2] = system: Culex quinquefasciatus mosquitoes; assay: Topical bioassay on adult female Culex quinquefasciatus mosquitoes (knockdown 1 h, mortality 24 h; Colby calculation for combinations); format: in vivo

CCCCOCCOCCOCc1cc2c(cc1CCC)OCO2 [PBO, piperonyl butoxide, reference compound]
inhibition of P450 activity (Cytochrome P450 enzyme): acted as inhibitors

C=C/C(C)=C/C/C=C(\C)CCC=C(C)C [Farnesene Alpha]
Vapor Pressure (@ 25° C.) [1]: 0.025 mmHg | Solubility (in water @ 25° C.) [1]: 0.011 µg/mL (≈ 0.0538 µM)

CN/C(=N/CC1CCOC1)N[N+](=O)[O-] (stereo not drawn) [Dinotefuran, dinotefuran, reference compound]
1 hour knockdown (Aedes aegypti mosquitoes; 0.004 μg/mosquito): 0% | % MORTALITY AFTER 24 HRS (Aedes aegypti mosquitoes; 0.004 μg/mosquito): 0% | 1 hour knockdown (Aedes aegypti mosquitoes; 0.006 μg/mosquito): 0% and 3% | mortality at 0.004 µg/mosquito (Aedes aegypti mosquitoes; Aedes aegypti, topical, 24 h, read-out: % MORTALITY AFTER 24 HRS, 0.004 μg/mosquito): 0% | LD50 (Aedes aegypti mosquitoes; topical application, adult Aedes aegypti): 0.06 μg/mosquito | 1 hour knockdown ([2]; 0.008 μg/mosquito): 10% | % MORTALITY AFTER 24 HRS ([2]; 0.008 μg/mosquito): 77% and 73%

CC(C)=CCC[C@]1(C)[C@H]2CC=C(C)[C@@H]1C2 (relative stereo) [Bergamotene Trans Alpha]
Vapor Pressure (@ 25° C.) [1]: 0.028 mmHg | Solubility (in water @ 25° C.) [1]: 0.030 µg/mL (≈ 0.147 µM)

C=C(C)C1CC=C(CO)CC1 (racemic) [Pennyl Alcohol (racemic)]
Vapor Pressure (@ 25° C.) [1]: 0.00478 mmHg | Solubility (in water @ 25° C.) [1]: 471 µg/mL (≈ 3090 µM)

CC1=CCC2CC1C2(C)C (stereo not drawn) [Pinene Alpha]
Vapor Pressure (@ 25° C.) [1]: 4.75 mmHg

C=C1CC/C=C(\C)CC[C@@H]2[C@@H]1CC2(C)C [β-Caryophyllene]
1 hour knockdown (Aedes aegypti mosquitoes; 1%): 0% | % MORTALITY AFTER 24 HRS (Aedes aegypti mosquitoes; 1%): 0% | % MORTALITY AFTER 24 HRS (Aedes aegypti mosquitoes; 3%): 0% | % MORTALITY AFTER 24 HRS (Aedes aegypti mosquitoes; 3%, listed as β-CARYOPHYLLENE): 77% | 1 hour knockdown (Aedes aegypti mosquitoes; 5%): 10% | % MORTALITY AFTER 24 HRS (Aedes aegypti mosquitoes; 5%): 17% | 1 hour knockdown (Aedes aegypti mosquitoes; 10%): 57% | % MORTALITY AFTER 24 HRS (Aedes aegypti mosquitoes; 10%): 40% | 1 hour knockdown (Aedes aegypti mosquitoes; 20%): 93% | % MORTALITY AFTER 24 HRS (Aedes aegypti mosquitoes; 20%): 83% | % MORTALITY AFTER 24 HRS (Aedes aegypti mosquitoes; single active, 3%): 7% and 10% | Vapor Pressure (@ 25° C.) [1]: 0.031 mmHg | Solubility (in water @ 25° C.) [1]: 0.05 µg/mL (≈ 0.245 µM)

C=C1CC[C@H]2O[C@]2(C)CC[C@@H]2[C@@H]1CC2(C)C [Caryophyllene Oxide-Beta]
Vapor Pressure (@ 25° C.) [1]: 0.01 mmHg | Solubility (in water @ 25° C.) [1]: 2.21 µg/mL (≈ 10 µM)

C=C1/C=C/[C@H](C(C)C)CC/C(C)=C/CC1 [Germacrene D]
Vapor Pressure (@ 25° C.) [1]: 0.023 mmHg | Solubility (in water @ 25° C.) [1]: 0.013 µg/mL (≈ 0.0636 µM)

C=C(C)C1CC=C(C=O)CC1 (stereo not drawn) [Perillaldehyde, perillaldehyde]
1 hour knockdown (Aedes aegypti mosquitoes; 3%): 53% | mortality at 1 % (Aedes aegypti mosquitoes; Aedes aegypti, topical, 24 h, read-out: % MORTALITY AFTER 24 HRS, 1%): 3% | mortality at 1 % (Aedes aegypti mosquitoes; Aedes aegypti, topical, 24 h, read-out: % MORTALITY AFTER 24 HRS, single active, 1%): 0% | mortality at 3 % (Aedes aegypti mosquitoes; Aedes aegypti, topical, 24 h, read-out: % MORTALITY AFTER 24 HRS, single active, 3%): 73% | 1 hour knockdown ([2]; 2%): 33% | % MORTALITY AFTER 24 HRS ([2]; 2%): 13% | % MORTALITY AFTER 24 HRS ([2]; 3%): 13% | inhibition of P450 activity (Cytochrome P450 enzyme): acted as inhibitors | inhibition of P450 activity relative to PBO (Cytochrome P450 enzyme; perillaldehyde at 1% vs PBO at 2%): as potent an inhibitor of P450 as PBO at 2% | inhibition of P450 activity relative to PBO (Cytochrome P450 enzyme; perillaldehyde at 10% vs PBO at 2%): a more potent inhibitor of P450 than PBO at 2% | Vapor Pressure (@ 25° C.) [1]: 0.0463 mmHg | Solubility (in water @ 25° C.) [1]: 160.7 µg/mL (≈ 1070 µM)

C=C1CCC2CC1C2(C)C (stereo not drawn) [Pinene Beta]
Vapor Pressure (@ 25° C.) [1]: 2.93 mmHg
